Here are results for one substance from US12186374B2 (Sanofi-Aventis Deutschland GmbH, priority 2014, dated 2025).

This assay relates to patients with Type 2 diabetes mellitus (T2DM). Description: Standardized meal test: 2-hour glucose excursion and 2-hour PPG (Example 2). The class given is in vivo, human. Here is the method: Patients will undergo a standardized meal challenge to assess fasting and postprandial glucose (central laboratory), as well as plasma glucose excursion.
The standardized meal contains approximately 600 kcal and is composed of 50 to 55% carbohydrate, 15 to 20% protein and 25 to 30% fat.
On the day of the standardized meal test, the patients will come to the investigational site in the morning, in fasting conditions for at least 8 hours and must not eat any food or drink, except water, before the scheduled standardized meal test. […] Patient in insulin glargine group will inject their insulin glargine at their usual injection time.
The standardized meal for all patients should be consumed within a 15-minute period. Blood for plasma glucose is drawn 5 times: • 30 minutes prior to the start of the meal and before IMP administration if the IMP is injected before breakfast; • Just before the start of the standardized meal (0 minute), • 30 minutes after the start of the standardized meal, • 60 minutes after the start of the standardized meal, • 120 minutes after the start of the standardized meal.
Similar MMRM method or ANCOVA was applied on continuous secondary efficacy endpoints and Cochran-Mantei-Haenszel method stratified by randomization strata was applied on categorical efficacy endpoints.

[1] abbreviates: Example 2, baseline, standardized meal test.
Where [2] appears, read: standardized meal test, mITT population.

“Gly(A21)-Arg(B31)-Arg(B32)-human insulin [Insulin Glargine]”: the “2-hour plasma glucose excursion, change from baseline to Week 30 (LOCF), LS Mean (SE)” value (ANCOVA, mITT population) is given as −0.18 (0.157) mmol/L. In addition, where the note is “Example 2”, the “2-hour PPG change from baseline to Week 30 (LOCF) Mean (SD)” value is −3.26 (3.54) mmol/L and the “2-hour PPG change from baseline to Week 30 (LOCF) Median” value was -3.35 mmol/L. Moreover, for the setting “Example 2, ANCOVA”, the “2-hour PPG change from baseline to Week 30 (LOCF) LS Mean (SE)” value is given as −3.31 (0.178) mmol/L. For the same substance, for the setting “Example 2, ANCOVA, listed as insulin glargine”, the “2-hour PPG change from baseline to Week 30 (LOCF) LS Mean (SE)” value is -3.31 mmol/L. Also, where the note is “Example 2, Week 30 (LOCF)”, the “2-hour postprandial plasma glucose Week 30 (LOCF) Mean (SD)” value is recorded as 11.35 (3.12) mmol/L and the “2-hour postprandial plasma glucose Week 30 (LOCF) Median” value is 11.20 mmol/L. For the same substance, the “2-hour glucose excursion, LS mean change” value (Example 2, baseline to Week 30, standardized liquid breakfast meal) was -0.18 mmol/L. Besides, under setting [1], the “2-hour postprandial plasma glucose Baseline Mean (SD)” value is 14.61 (3.64) mmol/L and the “2-hour postprandial plasma glucose Baseline Median” value was 14.50 mmol/L. Besides, under setting [2], the “2-hour plasma glucose excursion, Week 30 (LOCF), Mean (SD)” value is listed as 4.80 (2.90) mmol/L; the “2-hour plasma glucose excursion, Week 30 (LOCF), Median” value is 4.70 mmol/L; the “2-hour plasma glucose excursion, change from baseline to Week 30 (LOCF), Mean (SD)” value was −0.22 (2.86) mmol/L; the “2-hour plasma glucose excursion, change from baseline to Week 30 (LOCF), Median” value was -0.10 mmol/L.
